The values that follow come from patent publication US20230365602A1, “COMPOUND FOR USE IN THE TREATMENT OF PROTOZOAL DISEASES AND PROCESS FOR PRODUCTION OF SAID COMPOUND” (QUADREL S.R.L., priority 2020, published 2023).

For data set [1] the following is noted: in humans; cited from earlier work.
Data set [2] has as its system L. infantum axenic amastigotes expressing luciferase. The data set is described as follows: In vivo model of infection with L. infantum axenic amastigotes expressing luciferase. To be noted: ten consecutive oral treatments with 10 mg/kg, 2 weeks after last treatment. The procedure:
FIG. 4 illustrates the in vivo activity of compounds 18 and 19 in a model of infection with L. infantum axenic amastigotes expressing luciferase (10 consecutive treatments with 10 mg/kg of each compound, evaluated by limiting dilution assay 2 weeks after the last treatment).
In vivo activity of compounds 18 and 19 (ten consecutive oral treatments with 10 mg/kg of each compound, followed by a break of 2 weeks after last treatment), was studied in a model of infection with axenic amastigotes expressing luciferase, essentially as described in (Mendes Costa D. et al, J. Sci Rep. 2019 Dec. 12; 9(1):18989; Tavares J. et al., Methods Mol Biol. 2019; 1971:289-301). (FIG. 4).

Data set [3] can be described thus: Biodistribution in tissues 72 h after oral gavage. In kind it is in vivo, mice. To be noted: for Kp at 72 h / concentration at 72 h: BALB/c (Compound 19), NMRI (miltefosine), mouse; for Kp at 72 h: 72 h after 20 mg/kg oral gavage. The procedure: Blood samples were collected from the tail vein at 0, 0.5, 0.75, 1, 3, 24 and 72 hours into heparinized tubes. Moreover, biodistribution of the molecule, 72h after administration, was determined in several organs of the treated mice, namely brain, liver, spleen, kidney, heart and bone marrow. […] J Chromatogr B, 865: 55-62) by liquid chromatography mass spectrometry (LC-MS/MS).

The target of a further data set is Aurora B kinase (Homo sapiens, UniProt Q96GD4). The data set is described as follows: Early toxicity: Aurora B kinase inhibition. In kind it is biochemical. As to conditions: Table 5.
A further data set is described as follows: Human plasma stability. In kind it is in vitro ADME. As to conditions: samples at 0, 15, 30, 45, 60, 120 minutes. On the procedure: Furthermore, compound 19 is stable in human hepatic microsomes (samples were taken at 0, 5, 15, 30, 45 minutes) (Table 8), while the human plasma stability is 99.7% (samples were taken at 0, 15, 30, 45, 60, 120 minutes).

In a further data set the target is hERG channel (Homo sapiens, UniProt Q12809). In words: Early toxicity: hERG inhibition. (In general: The hERG channel carries a current that helps repolarise heart muscle cells.)
The subject of data set [4] is Salmonella TA98 (frameshift mutations). In kind it is cell-based. On the procedure:
The test has been performed in duplicate as separate experiments (Table 9). Two different Salmonella strains were tested; TA98 (frameshift mutations) and TA100 (base pair substitutions, primarily at one of the GC pairs). Values above 15 represent genotoxicity.

One may read the half-life as the time needed for the level to fall by half in the phase considered. In general, inhibition refers to the drop in the measured response relative to a control, in per cent.

Like-named read-outs stand apart in the source and are kept apart here.

Sequence of hERG channel (Q12809 whole entry): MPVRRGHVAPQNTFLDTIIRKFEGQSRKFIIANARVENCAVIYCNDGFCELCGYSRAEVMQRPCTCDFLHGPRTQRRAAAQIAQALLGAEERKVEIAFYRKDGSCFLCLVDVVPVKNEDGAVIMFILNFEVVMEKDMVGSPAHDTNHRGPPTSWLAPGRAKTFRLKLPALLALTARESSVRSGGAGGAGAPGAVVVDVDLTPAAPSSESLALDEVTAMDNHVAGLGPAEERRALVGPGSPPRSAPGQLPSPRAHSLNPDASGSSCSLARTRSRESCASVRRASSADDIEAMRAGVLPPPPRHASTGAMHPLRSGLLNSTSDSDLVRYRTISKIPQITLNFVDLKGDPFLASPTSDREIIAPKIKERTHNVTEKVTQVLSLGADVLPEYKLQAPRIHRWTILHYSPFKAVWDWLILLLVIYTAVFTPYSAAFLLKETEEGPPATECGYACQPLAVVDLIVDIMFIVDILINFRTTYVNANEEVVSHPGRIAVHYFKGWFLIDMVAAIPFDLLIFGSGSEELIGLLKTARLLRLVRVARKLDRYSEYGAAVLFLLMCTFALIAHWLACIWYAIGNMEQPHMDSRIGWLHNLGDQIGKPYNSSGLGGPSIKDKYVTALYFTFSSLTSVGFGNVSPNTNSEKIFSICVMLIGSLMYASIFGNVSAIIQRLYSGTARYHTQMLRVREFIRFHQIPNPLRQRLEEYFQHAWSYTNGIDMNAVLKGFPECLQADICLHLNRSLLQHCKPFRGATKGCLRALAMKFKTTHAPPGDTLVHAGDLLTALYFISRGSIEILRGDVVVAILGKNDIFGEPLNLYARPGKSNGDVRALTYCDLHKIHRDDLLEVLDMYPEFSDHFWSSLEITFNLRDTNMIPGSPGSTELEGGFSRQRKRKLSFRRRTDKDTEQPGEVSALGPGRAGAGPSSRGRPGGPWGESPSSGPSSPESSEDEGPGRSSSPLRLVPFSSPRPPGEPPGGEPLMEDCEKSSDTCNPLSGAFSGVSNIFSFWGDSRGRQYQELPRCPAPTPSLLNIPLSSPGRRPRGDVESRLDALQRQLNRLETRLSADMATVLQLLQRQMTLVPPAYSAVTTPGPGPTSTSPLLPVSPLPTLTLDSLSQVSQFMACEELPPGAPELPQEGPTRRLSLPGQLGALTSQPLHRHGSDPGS
Sequence of Aurora B kinase (Q96GD4 whole entry): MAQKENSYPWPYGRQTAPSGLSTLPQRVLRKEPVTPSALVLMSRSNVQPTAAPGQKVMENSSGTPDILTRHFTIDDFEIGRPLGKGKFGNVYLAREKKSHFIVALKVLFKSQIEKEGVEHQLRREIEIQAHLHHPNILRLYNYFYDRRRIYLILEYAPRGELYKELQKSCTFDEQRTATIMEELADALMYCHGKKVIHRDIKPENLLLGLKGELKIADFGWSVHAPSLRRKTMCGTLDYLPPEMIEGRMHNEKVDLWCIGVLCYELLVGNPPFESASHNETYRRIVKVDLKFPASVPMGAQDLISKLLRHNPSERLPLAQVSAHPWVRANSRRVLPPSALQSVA

On to `CCCCCCCCCCCCCCCCOP(=O)([O-])OCC[N+](C)(C)C` [Miltefosine, hexadecylphosphocholine, reference compound], for which the half-life in data set [1] is 100 to 200 h.

Turning to `C[N+](C)(C)CCOP(=O)([O-])OCCCCCC1CCCCCCCCCCCCCC1` [Compound 19, 5-cyclopentadecylpentyl (2-(trimethylammonio)ethyl) phosphate], the “parasites in the bone marrow” value in data set [2] is listed as “under the detection limit”. Moreover, the “times less concentration in plasma than miltefosine” value in data set [3] (72 hours after 20 mg/kg oral gavage) was determined as 6.5 times. Moreover, the Kp at 72 h in data set [3] (bone marrow, read-out: Tissue/Plasma ratio Bone marrow) was determined as 0.09; in data set [3] (brain, read-out: Tissue/Plasma ratio Brain), 0.248; in data set [3] (heart, read-out: Tissue/Plasma ratio Heart) it was 0.55; in data set [3] (kidney, read-out: Tissue/Plasma ratio Kidney) it was 18.9; in data set [3] (liver, read-out: Tissue/Plasma ratio Liver), 5.36; in data set [3] (spleen, read-out: Tissue/Plasma ratio Spleen) it was 1.06. The concentration at 72 h in data set [3] (bone marrow, 72 hours after 20 mg/kg oral gavage, read-out: Bone marrow) stood at 200 ng/g; in data set [3] (brain, 72 hours after 20 mg/kg oral gavage, read-out: Brain), 540 ± 610 ng/g; in data set [3] (heart, 72 hours after 20 mg/kg oral gavage, read-out: Heart), 1200 ± 900 ng/g; in data set [3] (kidney, 72 hours after 20 mg/kg oral gavage, read-out: Kidney), 41100 ± 15800 ng/g; in data set [3] (liver, 72 hours after 20 mg/kg oral gavage, read-out: Liver), 11600 ± 880 ng/g; in data set [3] (plasma, 72 hours after 20 mg/kg oral gavage, read-out: Plasma) it was 2170 ± 550 ng/mL. Moreover, the concentration at 72 h in data set [3] (spleen, 72 hours after 20 mg/kg oral gavage, read-out: Spleen) is 2310 ± 710 ng/g. The inhibition at 10 µM is -9.92 ± 8.99% on Aurora B kinase and 4.06 ± 2.07% on hERG channel (human). Moreover, the “Human plasma Metabolic stability (%)” value in “Human plasma stability” turned out to be 99.7%. The “Flag for Interference, hERG” value at hERG channel (Table 4b) was “(no)”. In addition, the “Ames mutagenicity TA98 (values above 15 represent genotoxicity)” value is given as 11.0 ± 8.48 in data set [4] (3.125 μM); 13.0 ± 2.83 in data set [4] (6.25 μM); 12.5 ± 4.95 in data set [4] (12.5 μM); 6.5 ± 3.53 in data set [4] (25 μM); 11 ± 2.82 in data set [4] (50 μM); 11.0 ± 1.41 in data set [4] (100 μM). The “mutagenicity, TA98” value in data set [4] (up to 100 μM) was “does not exhibit mutagenicity”.
